target: T1, HGFR (Homo sapiens, UniProt P08581); test: HGFR continuous-coupled spectrophotometric assay; assay type: biochemical; conditions: Table 3, column 'Ki (μM) or I (%)': cells without % sign; read-out: Ki
T1 construct: purchased Upstate 14-526
T1 sequence (P08581 974-1390 limits assumed): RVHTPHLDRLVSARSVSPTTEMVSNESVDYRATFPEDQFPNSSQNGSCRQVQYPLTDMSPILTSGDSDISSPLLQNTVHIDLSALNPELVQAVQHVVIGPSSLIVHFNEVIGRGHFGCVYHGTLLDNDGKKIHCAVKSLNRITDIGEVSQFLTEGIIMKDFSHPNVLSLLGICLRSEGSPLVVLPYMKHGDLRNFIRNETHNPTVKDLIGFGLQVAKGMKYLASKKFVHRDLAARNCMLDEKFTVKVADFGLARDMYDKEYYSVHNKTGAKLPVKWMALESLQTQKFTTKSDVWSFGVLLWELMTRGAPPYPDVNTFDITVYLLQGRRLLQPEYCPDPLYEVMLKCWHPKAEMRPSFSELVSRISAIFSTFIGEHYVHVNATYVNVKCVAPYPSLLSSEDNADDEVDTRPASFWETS

Row | Ki | SMILES
1 | 0.091 µM | CC(Oc1cc(-c2ccc(F)c(C#N)c2)cnc1N)c1c(Cl)ccc(F)c1Cl (stereo not shown) [Example I-544, 5-{6-Amino-5-[1-(2,6-dichloro-3-fluoro-phenyl)-ethoxy]-pyridin-3-yl}-2-fluoro-benzonitrile]
2 | 0.057 µM | CC(Oc1cc(-c2ccc(C(=O)N3CCCCC3)cc2)cnc1N)c1c(Cl)ccc(F)c1Cl (stereo not shown) [Example I-546, (4-{6-Amino-5-[1-(2,6-dichloro-3-fluoro-phenyl)-ethoxy]-pyridin-3-yl}-phenyl)-pipendin-1-yl-methanone]
3 | 0.067 µM | CC(Oc1cc(-c2ccc(C(=O)N3CCCC3)cc2)cnc1N)c1c(Cl)ccc(F)c1Cl (stereo not shown) [Example I-547, (4-{6-Amino-5-[1-(2,6-dichloro-3-fluoro-phenyl)-ethoxy]-pyridin-3-yl}-phenyl)-pyrrolidin-1-yl-methanone]
4 | 0.095 µM | CC(Oc1cc(-c2ccc(CN3C[C@@H](C)N[C@@H](C)C3)cc2)cnc1N)c1c(Cl)ccc(F)c1Cl (stereo partly shown) [Example I-549, 3-[1-(2,6-Dichloro-3-fluoro-phenyl)-ethoxy]-5-[4-(dimethyl-piperazin-1-ylmethyl)-phenyl]-pyridin-2-ylamine]
5 | 0.091 µM | CC(Oc1cc(-c2ccc(C(=O)N3C[C@@H](C)N[C@@H](C)C3)c(F)c2)cnc1N)c1c(Cl)ccc(F)c1Cl (stereo partly shown) [Example I-551, (4-{6-Amino-5-[1-(2,6-dichloro-3-fluoro-phenyl)-ethoxy]-pyridin-3-yl}-2-fluoro-phenyl)-(dimethyl-piperazin-1-yl)-methanone]
6 | 0.224 µM | CC(Oc1cc(-c2ccc(C(=O)N3C[C@@H](C)N[C@@H](C)C3)cc2F)cnc1N)c1c(Cl)ccc(F)c1Cl (stereo partly shown) [Example I-552, (4-{6-Amino-5-[1-(2,6-dichloro-3-fluoro-phenyl)-ethoxy]-pyridin-3-yl}-3-fluoro-phenyl)-(dimethyl-piperazin-1-yl)-methanone]
7 | 0.259 µM | Cc1cc(C(=O)N2C[C@@H](C)N[C@@H](C)C2)ccc1-c1cnc(N)c(OC(C)c2c(Cl)ccc(F)c2Cl)c1 (stereo partly shown) [Example I-553, (4-{6-Amino-5-[1-(2,6-dichloro-3-fluoro-phenyl)-ethoxy]-pyridin-3-yl)-3-methyl-phenyl)-(dimethyl-piperazin-1-yl)-methanone]
8 | 0.141 µM | CC(Oc1cc(-c2ccc(C(=O)N3C[C@@H](C)O[C@@H](C)C3)cc2)cnc1N)c1c(Cl)ccc(F)c1Cl (stereo partly drawn) [Example I-554, (4-{6-Amino-5-[1-(2,6-dichloro-3-fluoro-phenyl)-ethoxy]-pyridin-3-yl}-phenyl)-((2R,6S)-2,6-dimethyl-morpholin-4-yl)-methanone]
9 | 0.575 µM | COc1ccc(OC)c(-c2cnc(N)c(OC(C)c3c(Cl)ccc(F)c3Cl)c2)c1 (stereo not shown) [Example I-556, 3-[1-(2,6-Dichloro-3-fluoro-phenyl)-ethoxy]-5-(2,5-dimethoxy-phenyl)-pyridin-2-ylamine]
10 | 0.217 µM | COc1ccc(-c2cnc(N)c(OC(C)c3c(Cl)ccc(F)c3Cl)c2)c(OC)c1 (stereo not shown) [Example I-557, 3-[1-(2,6-Dichloro-3-fluoro-phenyl)-ethoxy]-5-(2,4-dimethoxy-phenyl)-pyridin-2-ylamine]
11 | 0.278 µM | COc1ccccc1-c1cnc(N)c(OC(C)c2c(Cl)ccc(F)c2Cl)c1 (stereo not shown) [Example I-566, 3-[1-(2,6-Dichloro-3-fluoro-phenyl)-ethoxy]-5-(2-methoxy-phenyl)-pyridin-2-ylamine]
12 | 0.0525 µM | CC(Oc1cc(-c2ccc(C(=O)N3CCOCC3)cc2)cnc1N)c1c(Cl)ccc(F)c1Cl (stereo not shown) [Example I-568, (4-{6-Amino-5-[1-(2,6-dichloro-3-fluoro-phenyl)-ethoxy]-pyridin-3-yl}-phenyl)-morpholin-4-yl-methanone]
13 | 0.0478 µM | CC(Oc1cc(-c2ccc(C(=O)N3C[C@@H](C)N[C@@H](C)C3)c(Cl)c2)cnc1N)c1c(Cl)ccc(F)c1Cl (stereo partly drawn) [Example I-569, (4-{6-Amino-5-[1-(2,6-dichloro-3-fluoro-phenyl)-ethoxy]-pyridin-3-yl}-2-chloro-phenyl)-((3R,5S)-dimethyl-piperazin-1-yl)-methanone]
14 | 0.225 µM | Cc1cc(-c2cnc(N)c(OC(C)c3c(Cl)ccc(F)c3Cl)c2)ccc1C(=O)N1C[C@@H](C)N[C@@H](C)C1 (stereo partly shown) [Example I-570]
15 | 0.22 µM | CC(Oc1cc(-c2ccc(CN3C[C@@H](C)O[C@@H](C)C3)cc2)cnc1N)c1c(Cl)ccc(F)c1Cl (stereo partly drawn) [Example I-571, 3-[1-(2,6-Dichloro-3-fluoro-phenyl)-ethoxy]-5-[4-((2R,6S)-2,6-dimethyl-morpholin-4-ylmethyl)-phenyl]-pyridin-2-ylamine]
16 | 0.0554 µM | CC(Oc1cc(-c2ccc(CN3CCOCC3)cc2)cnc1N)c1c(Cl)ccc(F)c1Cl (stereo not shown) [Example I-572, 3-[1-(2,6-Dichloro-3-fluoro-phenyl)-ethoxy]-5-(4-morpholin-4-ylmethyl-phenyl)-pyridin-2-ylamine]
17 | 0.0095 µM | CC(Oc1cc(-c2ccc(C(=O)N3CCCN(C)CC3)cc2)cnc1N)c1c(Cl)ccc(F)c1Cl (stereo not shown) [Example I-603, (4-{6-Amino-5-[1-(2,6-dichloro-3-fluoro-phenyl)-ethoxy]-pyridin-3-yl}-phenyl)-(4-methyl-[1,4]-diazepan-1-yl)-methanone]
18 | 0.031 µM | CC(Oc1cc(-c2ccc(C(=O)N3CCCNCC3)cc2)cnc1N)c1c(Cl)ccc(F)c1Cl (stereo not shown) [Example I-604, (4-{6-Amino-5-[1-(2,6-dichloro-3-fluoro-phenyl)-ethoxy]-pyridin-3-yl}-phenyl)-[1,4]diazepan-1-yl-methanone]
19 | 0.0475 µM | CC(Oc1cc(-c2ccc(C(=O)N3CCNCC3)cc2)cnc1N)c1c(Cl)ccc(F)c1Cl (stereo not shown) [Example I-605, (4-{6-Amino-5-[1-(2,6-dichloro-3-fluoro-phenyl)-ethoxy]-pyridin-3-yl}-phenyl)-piperazin-1-yl-methanone]
20 | 0.655 µM | C=Cc1cnc(N)c(OC(C)c2c(Cl)ccc(F)c2Cl)c1 (stereo not shown) [Example I-606, 3-[1-(2,6-Dichloro-3-fluoro-phenyl)-ethoxy]-5-vinyl-pyridin-2-ylamine]
21 | 0.058 µM | CC(Oc1cc(-c2ccc(C(=O)N3C[C@@H](O)[C@@H](O)C3)cc2)cnc1N)c1c(Cl)ccc(F)c1Cl (stereo partly drawn) [Example I-607, (4-{6-Amino-5-[1-(2,6-dichloro-3-fluoro-phenyl)-ethoxy]-pyridin-3-yl}-phenyl)-((3R,4S)-3,4-dihydroxy-pyrrolidin-1-yl)-methanone]
22 | 0.045 µM | CC(Oc1cc(-c2ccc(C(=O)NC3CNC3)cc2)cnc1N)c1c(Cl)ccc(F)c1Cl (stereo not shown) [Example I-609, 4-{6-Amino-5-[1-(2,6-dichloro-3-fluoro-phenyl)-ethoxy]-pyridin-3-yl}-N-azetidin-3-yl-benzamide]
23 | 0.069 µM | CC(Oc1cc(-c2ccc(S(=O)(=O)N(C)C)cc2)cnc1N)c1c(Cl)ccc(F)c1Cl (stereo not shown) [Example I-610, 4-{6-Amino-5-[1-(2,6-dichloro-3-fluoro-phenyl)-ethoxy]-pyridin-3-yl}-N,N-dimethyl-benzenesulfonamide]
24 | 0.375 µM | CCN1CCN(C(=O)c2ccc(-c3cnc(N)c(OC(C)c4c(F)ccc(F)c4Cl)c3)cc2)CC1 (stereo not shown) [Example I-622, (4-{6-Amino-5-[1-(2-chloro-3,6-difluoro-phenyl)-ethoxy]-pyridin-3-yl}-phenyl)-(4-ethyl-piperazin-1-yl)-methanone]
25 | 0.0554 µM | CC(Oc1cc(-c2ccc(C(=O)N3CC4C(N)C4C3)cc2)cnc1N)c1c(Cl)ccc(F)c1Cl (stereo not shown) [Example I-635, (6-Amino-3-aza-bicyclo[3.1.0]hex-3-yl)-(4-{6-amino-5-[1-(2,6-dichloro-3-fluoro-phenyl)-ethoxy]-pyridin-3-yl}-phenyl)-methanone]
26 | 0.109 µM | CC(Oc1cc(-c2ccc(OCCN3CCOCC3)nc2)cnc1N)c1c(Cl)ccc(F)c1Cl (stereo not shown) [Example I-636, 5-[1-(2,6-Dichloro-3-fluoro-phenyl)-ethoxy]-6′-(2-morpholin-4-yl-ethoxy)-[3,3′]bipyridinyl-6-ylamine]
27 | 0.692 µM | CC(Oc1cc(-c2ccc(=O)n(CCN3CCCC3)c2)cnc1N)c1c(Cl)ccc(F)c1Cl (stereo not shown) [Example I-637, 6′-Amino-5′-[1-(2,6-dichloro-3-fluoro-phenyl)-ethoxy]-1-(2-pyrrolidin-1-yl-ethyl)-1H-[3,3′]-bipyridinyl-6-one]
28 | 0.094 µM | CC(Oc1cc(-c2ccc(OCCN3CCCC3)nc2)cnc1N)c1c(Cl)ccc(F)c1Cl (stereo not shown) [Example I-638, 5-[1-(2,6-Dichloro-3-fluoro-phenyl)-ethoxy]-6′-(2-pyrrolidin-1-yl-ethoxy)-[3,3′]bipyridinyl-6-ylamine]

same assay, conditions: cells prefixed Ki; read-out: Met Ki

Row | Ki | SMILES
29 | 0.2 µM | COC(=O)COc1ccc(-c2cnc(N)c(OC(C)c3c(Cl)ccc(F)c3Cl)c2)cc1 (stereo not shown) [Example I-475, (4-{6-Amino-5-[1-(2,6-dichloro-3-fluoro-phenyl)-ethoxy]-pyridin-3-yl}-phenoxy)-acetic acid methyl ester]
30 | 0.2 µM | CC(Oc1cc(-c2ccc(OCC(=O)O)cc2)cnc1N)c1c(Cl)ccc(F)c1Cl (stereo not shown) [Example I-476, (4-{6-Amino-5-[1-(2,6-dichloro-3-fluoro-phenyl)-ethoxy]-pyridin-3-yl}-phenoxy)-acetic acid]
31 | 0.027 µM | CC(Oc1cc(-c2ccc(OCC(=O)N3C[C@@H](C)N[C@@H](C)C3)cc2)cnc1N)c1c(Cl)ccc(F)c1Cl (stereo partly drawn) [Example I-477, 2-(4-{6-Amino-5-[1-(2,6-dichloro-3-fluoro-phenyl)-ethoxy]-pyridin-3-yl}-phenoxy)-1-((3R,5S)-3,5-dimethyl-piperazin-1-yl)-ethanone]
32 | 0.041 µM | CC(Oc1cc(-c2ccc(OCC(=O)N3CC[C@@H](O)C3)cc2)cnc1N)c1c(Cl)ccc(F)c1Cl (stereo partly drawn) [Example I-478, 2-(4-{6-Amino-5-[1-(2,6-dichloro-3-fluoro-phenyl)-ethoxy]-pyridin-3-yl}-phenoxy)-1-((R)-3-hydroxy-pyrrolidin-1-yl)-ethanone]
33 | 0.16 µM | CC(Oc1cc(-c2ccc(OCC(=O)N3CCN(C(=O)OC(C)(C)C)CC3)cc2)cnc1N)c1c(Cl)ccc(F)c1Cl (stereo not shown) [Example I-479, 4-[2-(4-{6-Amino-5-[1-(2,6-dichloro-3-fluoro-phenyl)-ethoxy]-pyridin-3-yl}-phenoxy)-acetyl]-piperazine-1-carboxylic acid tert-butyl ester]
34 | 3.3 µM | CC(Oc1cc(-c2ccc(OCCN3CCCC3)cc2)cnc1N)c1cccc(F)c1Cl (stereo not shown) [Example I-487, 3-[1-(2-Chloro-3-fluoro-phenyl)-ethoxy]-5-[4-(2-pyrrolidin-1-yl-ethoxy)-phenyl]-pyridin-2-ylamine]

Source: patent US20050009840A1 (SUGEN, INC., priority 2003, published 2005)
